Assays:
[1] = target: Metabotropic glutamate receptor 5 (Rattus norvegicus, UniProt P31424); test: Negative allosteric modulator activity at rat mGlu5 expressed in HEK293A cells assessed as reduction in glutamate-induced calcium mobilization; format: functional, cell-based, HEK293-A
[2] = target: Metabotropic glutamate receptor 5 (Rattus norvegicus) (UniProt P31424); test: Negative allosteric modulator activity at rat mGlu5 expressed in HEK293A cells assessed as reduction in 100 uM glutamate-induced calcium mobilization at 30 uM; format: functional, cell-based; conditions: HEK293-A
Chain of Metabotropic glutamate receptor 5 (Rattus norvegicus) (P31424 21-1203 limits assumed): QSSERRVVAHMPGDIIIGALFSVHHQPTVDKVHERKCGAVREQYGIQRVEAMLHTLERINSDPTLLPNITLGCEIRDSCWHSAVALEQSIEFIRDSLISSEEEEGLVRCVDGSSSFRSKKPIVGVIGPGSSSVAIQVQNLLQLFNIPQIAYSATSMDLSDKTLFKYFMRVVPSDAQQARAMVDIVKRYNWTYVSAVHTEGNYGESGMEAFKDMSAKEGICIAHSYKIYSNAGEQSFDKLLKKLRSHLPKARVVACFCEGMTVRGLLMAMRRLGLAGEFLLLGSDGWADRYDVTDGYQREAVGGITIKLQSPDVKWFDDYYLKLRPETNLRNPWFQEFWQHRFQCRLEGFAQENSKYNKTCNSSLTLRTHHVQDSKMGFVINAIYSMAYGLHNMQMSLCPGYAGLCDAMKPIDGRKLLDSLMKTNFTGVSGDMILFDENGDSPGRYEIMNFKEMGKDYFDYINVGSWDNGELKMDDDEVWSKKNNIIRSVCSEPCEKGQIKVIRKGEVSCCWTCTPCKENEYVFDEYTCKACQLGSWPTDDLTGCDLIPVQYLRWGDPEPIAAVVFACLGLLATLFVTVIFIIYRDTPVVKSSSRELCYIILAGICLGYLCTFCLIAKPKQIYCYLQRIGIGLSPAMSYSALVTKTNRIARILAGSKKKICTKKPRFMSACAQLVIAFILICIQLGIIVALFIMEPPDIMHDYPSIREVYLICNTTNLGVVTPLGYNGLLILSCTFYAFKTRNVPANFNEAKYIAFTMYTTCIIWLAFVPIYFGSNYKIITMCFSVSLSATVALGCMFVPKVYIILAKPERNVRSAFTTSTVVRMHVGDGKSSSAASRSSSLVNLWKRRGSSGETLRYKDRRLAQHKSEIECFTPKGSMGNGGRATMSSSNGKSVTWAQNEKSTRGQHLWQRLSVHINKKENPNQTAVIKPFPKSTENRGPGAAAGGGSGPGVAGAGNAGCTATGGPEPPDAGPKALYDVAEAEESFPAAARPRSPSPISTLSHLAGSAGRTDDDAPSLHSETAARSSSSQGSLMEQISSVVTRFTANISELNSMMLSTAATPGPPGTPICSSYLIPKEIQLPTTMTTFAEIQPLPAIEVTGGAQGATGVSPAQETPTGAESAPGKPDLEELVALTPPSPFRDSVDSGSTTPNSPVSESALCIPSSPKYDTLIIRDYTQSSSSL

Chain of Metabotropic glutamate receptor 5 (P31424 whole entry): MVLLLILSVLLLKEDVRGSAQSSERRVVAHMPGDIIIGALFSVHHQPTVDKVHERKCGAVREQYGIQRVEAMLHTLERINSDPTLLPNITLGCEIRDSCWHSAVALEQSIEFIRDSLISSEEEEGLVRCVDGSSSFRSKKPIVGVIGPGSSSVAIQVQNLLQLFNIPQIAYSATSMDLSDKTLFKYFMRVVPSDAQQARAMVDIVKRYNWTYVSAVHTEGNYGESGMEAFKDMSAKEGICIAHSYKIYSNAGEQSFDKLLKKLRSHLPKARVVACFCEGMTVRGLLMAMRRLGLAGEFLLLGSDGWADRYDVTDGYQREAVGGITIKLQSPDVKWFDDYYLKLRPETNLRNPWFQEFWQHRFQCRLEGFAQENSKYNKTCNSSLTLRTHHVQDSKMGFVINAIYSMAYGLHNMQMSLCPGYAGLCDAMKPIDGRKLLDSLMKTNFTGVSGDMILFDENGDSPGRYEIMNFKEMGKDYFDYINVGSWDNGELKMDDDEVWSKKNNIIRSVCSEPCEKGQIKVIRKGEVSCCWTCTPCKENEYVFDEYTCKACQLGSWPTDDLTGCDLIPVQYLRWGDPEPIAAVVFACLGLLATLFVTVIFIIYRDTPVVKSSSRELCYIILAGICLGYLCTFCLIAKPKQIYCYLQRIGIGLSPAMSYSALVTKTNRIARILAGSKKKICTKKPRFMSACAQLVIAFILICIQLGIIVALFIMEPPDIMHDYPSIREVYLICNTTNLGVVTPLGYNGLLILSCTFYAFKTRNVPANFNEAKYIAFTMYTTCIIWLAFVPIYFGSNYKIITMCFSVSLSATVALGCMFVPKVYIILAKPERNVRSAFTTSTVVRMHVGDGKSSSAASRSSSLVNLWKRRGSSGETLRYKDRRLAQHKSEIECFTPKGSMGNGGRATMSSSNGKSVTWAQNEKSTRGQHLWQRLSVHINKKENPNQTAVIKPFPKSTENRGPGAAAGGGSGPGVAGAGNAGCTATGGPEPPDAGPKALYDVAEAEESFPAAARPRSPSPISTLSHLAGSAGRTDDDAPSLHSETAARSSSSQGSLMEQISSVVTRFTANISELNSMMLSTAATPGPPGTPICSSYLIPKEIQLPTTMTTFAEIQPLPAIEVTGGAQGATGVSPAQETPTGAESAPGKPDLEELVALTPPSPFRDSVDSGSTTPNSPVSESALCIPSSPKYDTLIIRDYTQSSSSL

Row | SMILES | IC50 [1] | %max [2]
1 | O=C(Nc1cncc(Oc2cncc(F)c2)n1)c1cccs1 | 6.37 µM | 7.8%
2 | O=C(Nc1cncc(Oc2cncc(F)c2)n1)c1cccc(F)c1 | 3.82 µM | -0.4%
3 | O=C(Nc1cncc(Oc2cncc(F)c2)n1)c1cc(Cl)ccc1F | 0.894 µM | 1%
4 | O=C(Nc1cncc(Oc2cncc(F)c2)n1)c1ccccn1 | > 10 µM | 40%
5 | Cc1nc(C(=O)Nc2cncc(Oc3cncc(F)c3)n2)cs1 | – | 19%
6 | O=C(Nc1cncc(Oc2cncnc2)n1)c1ccsc1 | > 10 µM | 15%
7 | O=C(Nc1cncc(Oc2cncc(F)c2)n1)c1nccs1 | > 10 µM | 40%
8 | O=C(Nc1cncc(Oc2cncnc2)n1)c1cc(Br)ccn1 | 0.1 µM | 2.3%
9 | O=C(Nc1ccnc(Oc2cccnc2)c1)c1cccc(Cl)c1 | 3.7 µM | –
10 | N#Cc1cc(F)cc(C(=O)Nc2cncc(Oc3cncc(F)c3)n2)c1 | > 30 µM | –
11 | O=C(Nc1cncc(Oc2cncc(F)c2)n1)c1ccncn1 | > 30 µM | –

Source: ChEMBL document CHEMBL3352741, “Discovery of VU0431316: a negative allosteric modulator of mGlu5 with activity in a mouse model of anxiety” (Bioorg Med Chem Lett, 2014)
